In patent US5593970A, “Heterocyclic anthracycline analogs” (priority 1994, dated 1997):
Where a name gives a salt, the structure may show the parent alone. Read-outs that look alike come from different tables or passages of the source.

Experiments:
Test in all cases: Microculture tetrazolium assay
Type in all cases: cell-based
SKOV3 = system: SKOV3
SKVLB = conditions: for VLB/OV3: IC50 ratio SKVLB/SKOV3; for IC50: SKVLB
T47D = system: T47D
LOX = system: LOX
HT29 = system: HT29
[1] = Homo sapiens, SK-OV-3, SKOV3, read-out: IC50
[2] = Homo sapiens, HT-29, HT29, read-out: IC50

Row | SMILES | IC50 (SKOV3; [1]) [nM] | VLB/OV3 (SKVLB) | IC50 (SKVLB; read-out: IC50) [µM] | IC50 (T47D; Homo sapiens, read-out: IC50) [µM] | IC50 (LOX; read-out: IC50) [nM] | IC50 (HT29; [2]) [nM] | IC50 (SKOV3; Homo sapiens, SK-OV-3, SKOV3) [nM] | IC50 (SKVLB) [µM] | IC50 (SKOV3; SKOV3, read-out: IC50) [nM] | IC50 (T47D; read-out: IC50) [µM] | IC50 (HT29; HT29, read-out: IC50) [nM] | IC50 (T47D; Homo sapiens) [µM] | IC50 (LOX) [nM] | IC50 (HT29; Homo sapiens, HT-29, HT29) [nM]
1 | COC[C@@H]1CC2=C(C(=O)c3cc4ccccc4c(O)c3C2=O)[C@@H](O[C@H]2C[C@H](NC(=O)C(F)(F)F)[C@H](O)[C@H](C)O2)O1 [BCH-1694, (1'S,1R,3S)-5,12-dioxo-6-hydroxy-3-methoxymethyl-1-(2',3',6'-trideoxy-3'-trifluoroacetamido-L-lyxohexopyranose)-3,4,5,12-tetrahydroanthraceno-[2,3-C]pyran] | 2990 | 3.19 | 9.54 | 4.49 | 3580 | 4310 | – | – | – | – | – | – | – | –
2 | COC[C@@H]1CC2=C(C(=O)c3cc4ccccc4c(O)c3C2=O)[C@@H](O[C@H]2C[C@H](N)[C@H](O)[C@H](C)O2)O1 [BCH-1695, (1'S ,1R,3S)-5,12-dioxo-6-hydroxy-3-methoxymethyl-1-(2',3',6'trideoxy-3'-amino-L-lyxohexopyranose)-3,4,5,12-tetrahydroanthraceno-[2,3-c]pyran] | – | 4.46 | 25.6 | 12.8 | 5230 | 14800 | 5740 | – | – | – | – | – | – | –
3 | COC[C@H]1CC2=C(C(=O)c3cc4ccccc4c(O)c3C2=O)[C@H](O[C@H]2C[C@H](NC(=O)C(F)(F)F)[C@H](O)[C@H](C)O2)O1 [BCH-1696, (1'S,1S,3R)-5,12-dioxo-6-hydroxy-3-methoxymethyl-1-(2',3',6'-trideoxy-3'-trifluoroacetamido-L-lyxohexopyranose)-3,4,5,12-tetrahydroanthraceno-[2,3-C]pyran] | 1100 | 2.46 | 2.71 | 1.21 | 1100 | 823 | – | – | – | – | – | – | – | –
4 | COCC1(COC)CC2=C(C(=O)c3cc4ccccc4c(O)c3C2=O)[C@H](O[C@H]2C[C@H](NC(=O)C(F)(F)F)[C@H](O)[C@H](C)O2)O1 [BCH-1698, (1'S,1S)-5,12-dioxo-6-hydroxy-3,3-bismethoxymethyl-1-(2',3',6'-trideoxy-3'-trifluoroacetamido-L-lyxohexopyranose)-3,4,5,12-tetrahydroanthraceno-[2,3-C]pyran] | 865 | 6.73 | 5.82 | 0.727 | 398 | 1120 | – | – | – | – | – | – | – | –
5 | CC(=O)[C@@H]1CC2=C(C(=O)c3cc4ccccc4c(O)c3C2=O)[C@@H](O[C@@H]2O[C@@H](C)[C@@H](O)[C@@H](O)C2I)O1 (some centres unmarked) [BCH-1990] | 2100 | 2.64 | – | 3.88 | 3010 | 1100 | – | 5.54 | – | – | – | – | – | –
6 | COCC1(COC)CC2=C(C(=O)c3cc4ccccc4c(O)c3C2=O)[C@H](O[C@H]2C[C@H](N)[C@H](O)[C@H](C)O2)O1 [BCH-1991, (1'S,1S)-5,12-dioxo-6-hydroxy-3,3-bis-methoxymethyl-1-(2',3',6'-trideoxy-3'-amino-L-lyxohexopyranose)-3,4,5,12-tetrahydroanthraceno-[2,3-c]-pyran hydrochloride] | 1470 | 3.77 | – | 0.918 | 1290 | 1720 | – | 5.54 | – | – | – | – | – | –
7 | CC(=O)[C@@H]1CC2=C(C(=O)c3cc4ccccc4c(O)c3C2=O)[C@H](OC[C@@H]2COC(C)(C)O2)S1 [BCH-1993] | – | 3.10 | 13 | – | 4020 | – | – | – | 4190 | 9.81 | 3470 | – | – | –
8 | CC(=O)[C@H]1CC2=C(C(=O)c3cc4ccccc4c(O)c3C2=O)[C@@H](OC[C@@H]2COC(C)(C)O2)S1 [BCH-1994] | – | 3.15 | 8.62 | – | 1910 | – | – | – | 2740 | 4.41 | 1960 | – | – | –
9 | C[C@@H]1O[C@@H](O[C@@H]2O[C@@H]([C@H](O)CO)CC3=C2C(=O)c2cc4ccccc4c(O)c2C3=O)C[C@H](NC(=O)C(F)(F)F)[C@@H]1O [BCH-1997] | 1560 | 4.31 | 6.72 | 2.14 | 2300 | 2690 | – | – | – | – | – | – | – | –
10 | CC(=O)[C@@H]1Cc2c(O)c3c(c(O)c2[C@@H](O[C@H]2O[C@H](CO)[C@@H](O)[C@H](O)[C@H]2NC(=O)N(CCCl)N=O)O1)C(=O)c1ccccc1C3=O [BCH-1999, (1'R, 1R,3S)-3-aceto-5,12-dihydroxy-1(2-deoxy-2-chloroethylnitrosoureido D-glucopyranose)-6,11-dioxo-3,4,6,11-tetrahydro-1H-anthra[2,3-c]pyran] | – | – | – | – | – | – | < 7740 | 1 | – | – | – | 20 | 4970 | 8060
